Patent US9924714B2, “Impregnatable matrix of plant, animal or synthetic origin or mixtures of same, containing a uniformly distributed antimicrobial compound, method for impregnating said matrix with a compound, and use thereof in the production of antimicrobial elements” (COMPAÑIA MINERA SAN GERONIMO, priority 2013, dated 2018)

Tests used:
Format in all cases: cell-based
[1] = test system: Staphylococcus aureus ATCC25923; assay: Disc growth inhibition halo test (Example 2)
[2] = test system: Staphylococcus epidermidis ATCC25923; assay: Disc growth inhibition halo test (Example 2)
[3] = test system: Streptococcus pneumoniae ATCC14325; assay: Disc growth inhibition halo test (Example 2)
[4] = test system: Streptococcus pyogenes ATCC2367; assay: Disc growth inhibition halo test (Example 2)
[5] = test system: Enterococcus faecium ISP133/04; assay: Disc growth inhibition halo test (Example 2)
[6] = test system: Enterococcus faecalis ATCC29212; assay: Disc growth inhibition halo test (Example 2)
[7] = test system: Escherichia coli ATCC25922; assay: Disc growth inhibition halo test (Example 2)
[8] = test system: Klebsiella pneumoniae ATCC4352; assay: Disc growth inhibition halo test (Example 2)
[9] = test system: Pseudomonas aeruginosa PAOI; assay: Disc growth inhibition halo test (Example 2)
[10] = test system: Acinetobacter baumanii UDP456; assay: Disc growth inhibition halo test (Example 2)
[11] = test system: Citrobacter freundii ISP1949/99; assay: Disc growth inhibition halo test (Example 2)
[12] = test system: Enterobacter aerogenes ATCC13048; assay: Disc growth inhibition halo test (Example 2)
12 bacterial strains = assay: Antibacterial activity of four copper compounds, summary (Example 2); details: discs 200-800 μg, summary in words

`O=P([O-])([O-])[O-].[Cu+2].[Cu+2].[OH-]` [Copper hydroxyphosphate compound (II), copper hydroxyphosphate (II)] showed a Growth inhibition zone ([1]; 200 μg on 5 mm disc) of 5.0 mm, a Growth inhibition zone ([1]; 400 μg on 5 mm disc) of 5.0 mm and a Growth inhibition zone ([1]; 600 μg on 5 mm disc) of 5.0 mm. It also gave a Growth inhibition zone ([1]; 800 μg on 5 mm disc) of 5.0 mm, a Growth inhibition zone ([2]; 200 μg on 5 mm disc) of 5.0 mm and a Growth inhibition zone ([2]; 400 μg on 5 mm disc) of 5.0 mm. The Growth inhibition zone ([2]; 600 μg on 5 mm disc) was 5.6 ± 0.5 mm, the Growth inhibition zone ([2]; 800 μg on 5 mm disc) was 6.3 ± 1.1 mm and the Growth inhibition zone ([3]; 200 μg on 5 mm disc) was 5.0 mm. For the same compound, the Growth inhibition zone ([3]; 400 μg on 5 mm disc) was 5.0 mm, the Growth inhibition zone ([3]; 600 μg on 5 mm disc) was 5.0 mm and the Growth inhibition zone ([3]; 800 μg on 5 mm disc) was 5.0 mm. It also gave a Growth inhibition zone ([4]; 200 μg on 5 mm disc) of 5.0 mm, a Growth inhibition zone ([4]; 400 μg on 5 mm disc) of 5.0 mm and a Growth inhibition zone ([4]; 600 μg on 5 mm disc) of 5.0 mm. The Growth inhibition zone ([4]; 800 μg on 5 mm disc) was 8.6 ± 0.6 mm, the Growth inhibition zone ([5]; 200 μg on 5 mm disc) was 5.0 mm and the Growth inhibition zone ([5]; 400 μg on 5 mm disc) was 5.0 mm. The Growth inhibition zone ([5]; 600 μg on 5 mm disc) was 5.0 mm, the Growth inhibition zone ([5]; 800 μg on 5 mm disc) was 5.0 mm and the Growth inhibition zone ([6]; 200 μg on 5 mm disc) was 5.0 mm. The Growth inhibition zone ([6]; 400 μg on 5 mm disc) was 5.0 mm, the Growth inhibition zone ([6]; 600 μg on 5 mm disc) was 5.0 mm and the Growth inhibition zone ([6]; 800 μg on 5 mm disc) was 5.0 mm. For the same compound, the Growth inhibition zone ([7]; 200 μg on 5 mm disc) was 5.0 mm, the Growth inhibition zone ([7]; 400 μg on 5 mm disc) was 5.0 mm and the Growth inhibition zone ([7]; 600 μg on 5 mm disc) was 5.0 mm. The Growth inhibition zone ([7]; 800 μg on 5 mm disc) was 5.0 mm, the Growth inhibition zone ([8]; 200 μg on 5 mm disc) was 5.0 mm and the Growth inhibition zone ([8]; 400 μg on 5 mm disc) was 5.0 mm. It also gave a Growth inhibition zone ([8]; 600 μg on 5 mm disc) of 5.0 mm, a Growth inhibition zone ([8]; 800 μg on 5 mm disc) of 5.0 mm and a Growth inhibition zone ([9]; 200 μg on 5 mm disc) of 5.0 mm. The Growth inhibition zone ([9]; 400 μg on 5 mm disc) was 5.0 mm, the Growth inhibition zone ([9]; 600 μg on 5 mm disc) was 5.0 mm and the Growth inhibition zone ([9]; 800 μg on 5 mm disc) was 5.0 mm. The Growth inhibition zone ([10]; 200 μg on 5 mm disc) was 5.0 mm, the Growth inhibition zone ([10]; 400 μg on 5 mm disc) was 8.6 ± 0.6 mm and the Growth inhibition zone ([10]; 600 μg on 5 mm disc) was 7.3 ± 2 mm. The Growth inhibition zone ([10]; 800 μg on 5 mm disc) was 7.6 ± 2.3 mm, the Growth inhibition zone ([11]; 200 μg on 5 mm disc) was 5.0 mm and the Growth inhibition zone ([11]; 400 μg on 5 mm disc) was 5.0 mm. The Growth inhibition zone ([11]; 600 μg on 5 mm disc) was 5.0 mm, the Growth inhibition zone ([11]; 800 μg on 5 mm disc) was 5.0 mm and the Growth inhibition zone ([12]; 200 μg on 5 mm disc) was 5.0 mm. For the same compound, the Growth inhibition zone ([12]; 400 μg on 5 mm disc) was 5.0 mm, the Growth inhibition zone ([12]; 600 μg on 5 mm disc) was 5.0 mm and the Growth inhibition zone ([12]; 800 μg on 5 mm disc) was 5.0 mm.
`[Cl-].[Cu+2].[Cu+2].[OH-].[OH-].[OH-]` [copper oxychloride compound (II), copper oxychloride (II)] showed a Growth inhibition zone ([1]; 200 μg on 5 mm disc) of 6.0 ± 1.0 mm, a Growth inhibition zone ([1]; 400 μg on 5 mm disc) of 10.3 ± 0.6 mm and a Growth inhibition zone ([1]; 600 μg on 5 mm disc) of 11.7 ± 0.6 mm. For the same compound, the Growth inhibition zone ([1]; 800 μg on 5 mm disc) was 14.0 ± 1.0 mm, the Growth inhibition zone ([2]; 200 μg on 5 mm disc) was 12.0 ± 0.6 mm and the Growth inhibition zone ([2]; 400 μg on 5 mm disc) was 14.3 ± 0.6 mm. For the same compound, the Growth inhibition zone ([2]; 600 μg on 5 mm disc) was 13.7 ± 1.5 mm, the Growth inhibition zone ([2]; 800 μg on 5 mm disc) was 14.6 ± 0.6 mm and the Growth inhibition zone ([3]; 200 μg on 5 mm disc) was 5.0 ± 1.0 mm. For the same compound, the Growth inhibition zone ([3]; 400 μg on 5 mm disc) was 8.0 ± 0.7 mm, the Growth inhibition zone ([3]; 600 μg on 5 mm disc) was 9.0 ± 1.0 mm and the Growth inhibition zone ([3]; 800 μg on 5 mm disc) was 11.0 ± 1.2 mm. For the same compound, the Growth inhibition zone ([4]; 200 μg on 5 mm disc) was 5.0 ± 1.0 mm, the Growth inhibition zone ([4]; 400 μg on 5 mm disc) was 6.0 ± 1.0 mm and the Growth inhibition zone ([4]; 600 μg on 5 mm disc) was 7.0 ± 1.2 mm. It also gave a Growth inhibition zone ([4]; 800 μg on 5 mm disc) of 8.0 ± 1.4 mm, a Growth inhibition zone ([5]; 200 μg on 5 mm disc) of 6.0 ± 1.0 mm and a Growth inhibition zone ([5]; 400 μg on 5 mm disc) of 6.0 ± 1.0 mm. The Growth inhibition zone ([5]; 600 μg on 5 mm disc) was 6.0 ± 1.0 mm, the Growth inhibition zone ([5]; 800 μg on 5 mm disc) was 6.0 ± 1.0 mm and the Growth inhibition zone ([6]; 200 μg on 5 mm disc) was 6.0 ± 1.0 mm. For the same compound, the Growth inhibition zone ([6]; 400 μg on 5 mm disc) was 6.0 ± 1.0 mm, the Growth inhibition zone ([6]; 600 μg on 5 mm disc) was 6.0 ± 1.0 mm and the Growth inhibition zone ([6]; 800 μg on 5 mm disc) was 6.0 ± 1.0 mm. For the same compound, the Growth inhibition zone ([7]; 200 μg on 5 mm disc) was 13.3 ± 1.4 mm, the Growth inhibition zone ([7]; 400 μg on 5 mm disc) was 13.0 ± 0.7 mm and the Growth inhibition zone ([7]; 600 μg on 5 mm disc) was 15.0 ± 0.7 mm. For the same compound, the Growth inhibition zone ([7]; 800 μg on 5 mm disc) was 13.3 ± 0.7 mm, the Growth inhibition zone ([8]; 200 μg on 5 mm disc) was 7.3 ± 0.6 mm and the Growth inhibition zone ([8]; 400 μg on 5 mm disc) was 8.7 ± 0.6 mm. For the same compound, the Growth inhibition zone ([8]; 600 μg on 5 mm disc) was 9.7 ± 0.6 mm, the Growth inhibition zone ([8]; 800 μg on 5 mm disc) was 10.0 mm and the Growth inhibition zone ([9]; 200 μg on 5 mm disc) was 6.3 ± 1.5 mm. For the same compound, the Growth inhibition zone ([9]; 400 μg on 5 mm disc) was 6.7 ± 1.2 mm, the Growth inhibition zone ([9]; 600 μg on 5 mm disc) was 8.3 ± 0.6 mm and the Growth inhibition zone ([9]; 800 μg on 5 mm disc) was 3.3 ± 1.7 mm. It also gave a Growth inhibition zone ([10]; 200 μg on 5 mm disc) of 11.7 ± 0.6 mm, a Growth inhibition zone ([10]; 400 μg on 5 mm disc) of 15.7 ± 0.6 mm and a Growth inhibition zone ([10]; 600 μg on 5 mm disc) of 17.0 ± 1.0 mm. The Growth inhibition zone ([10]; 800 μg on 5 mm disc) was 19.7 ± 0.6 mm, the Growth inhibition zone ([11]; 200 μg on 5 mm disc) was 8.0 ± 1.0 mm and the Growth inhibition zone ([11]; 400 μg on 5 mm disc) was 10.7 ± 1.5 mm. The Growth inhibition zone ([11]; 600 μg on 5 mm disc) was 11.3 ± 0.6 mm, the Growth inhibition zone ([11]; 800 μg on 5 mm disc) was 11.3 ± 1.5 mm and the Growth inhibition zone ([12]; 200 μg on 5 mm disc) was 7.3 ± 1.5 mm. It also gave a Growth inhibition zone ([12]; 400 μg on 5 mm disc) of 3.7 ± 1.5 mm, a Growth inhibition zone ([12]; 600 μg on 5 mm disc) of 9.7 ± 0.6 mm and a Growth inhibition zone ([12]; 800 μg on 5 mm disc) of 9.7 ± 1.5 mm. For the same compound, the antibacterial activity (12 bacterial strains) was “antibacterial activity against Staphylococcus aureus, Staphylococcus epidermidis, Streptococcus pyogenes, Escherichia coli and Acinetobacter baumannii”.
